Data as given in PubChem BioAssay (NCI).
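These data come from cells grown in 96-well plates and exposed to compound for 48 hours at five concentrations. GI50 is the concentration that inhibits growth by half. TGI marks complete inhibition of growth.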

Columns and labels:
Assay in all cases: DTP human tumour cell line panel, 48 h; in the data active means GI50 below about 0.43 µM; inactive means the rest
[1] = tested on: 786-0 renal
[2] = tested on: A498 renal
[3] = tested on: A549 NSCLC
[4] = tested on: ACHN renal
[5] = tested on: BT-549 breast
[6] = tested on: CAKI-1 renal
[7] = tested on: CCRF-CEM leukemia
[8] = tested on: COLO 205 colon
[9] = tested on: DU-145 prostate
[10] = tested on: EKVX NSCLC
[11] = tested on: HCC-2998 colon
[12] = tested on: HCT-116 colon
[13] = tested on: HCT-15 colon
[14] = tested on: HL-60(TB) leukemia
[15] = tested on: HOP-62 NSCLC
[16] = tested on: HS 578T breast
[17] = tested on: HT29 colon
[18] = tested on: IGROV1 ovarian
[19] = tested on: K-562 leukemia
[20] = tested on: KM12 colon
[21] = tested on: LOX IMVI melanoma
[22] = tested on: M14 melanoma
[23] = tested on: MALME-3M melanoma
[24] = tested on: MCF7 breast
[25] = tested on: MDA-MB-231 breast
[26] = tested on: MDA-MB-435
[27] = tested on: MOLT-4 leukemia
[28] = tested on: NCI-H226 lung
[29] = tested on: NCI-H23 lung
[30] = tested on: NCI-H460 lung
[31] = tested on: NCI-H522 lung
[32] = tested on: NCI/ADR-RES ovarian
[33] = tested on: OVCAR-3 ovarian
[34] = tested on: OVCAR-4 ovarian
[35] = tested on: OVCAR-5 ovarian
[36] = tested on: OVCAR-8 ovarian
[37] = tested on: RPMI-8226 leukemia
[38] = tested on: RXF 393 renal
[39] = tested on: SF-268 CNS
[40] = tested on: SF-295 CNS
[41] = tested on: SF-539 CNS
[42] = tested on: SK-MEL-2 melanoma
[43] = tested on: SK-MEL-5 melanoma
[44] = tested on: SK-OV-3 ovarian
[45] = tested on: SN12C renal
[46] = tested on: SNB-19 CNS
[47] = tested on: SNB-75 CNS
[48] = tested on: SR leukemia
[49] = tested on: SW-620 colon
[50] = tested on: T-47D breast
[51] = tested on: TK-10 renal
[52] = tested on: U251 CNS
[53] = tested on: UACC-257 melanoma
[54] = tested on: UACC-62 melanoma
[55] = tested on: UO-31 renal
[56] = tested on: PC-3 prostate
[57] = tested on: SK-MEL-28 melanoma

CCCCCCCCn1ccc2cc(NC(=O)Cn3cc(CN4CCCC4)nn3)ccc21
3.18 µM: TGI [43]
3.34 µM: TGI [24] | TGI [46]
3.39 µM: TGI [5]
3.82 µM: TGI [8]
5.17 µM: TGI [37]
3.01 µM: TGI [21]
4.9 µM: TGI [33]
3.49 µM: TGI [15] | TGI [25]
3.16 µM: TGI [28] | TGI [52] | TGI [54]
6.34 µM: TGI [48]
4.74 µM: TGI [16]
3.6 µM: TGI [31] | TGI [49]
3.07 µM: TGI [4]
4.49 µM: TGI [32]
2.93 µM: TGI [47]
3.29 µM: TGI [45]
3.28 µM: TGI [6]
3.98 µM: TGI [20]
18.1 µM: TGI [34]
3.76 µM: TGI [50]
2.89 µM: TGI [23]
3.32 µM: TGI [12]
inactive: GI50 [1] 1.69 µM | GI50 [2] 1.7 µM | GI50 [3] 1.83 µM | GI50 [4] 1.69 µM | GI50 [5] 1.65 µM | GI50 [6] 1.76 µM | GI50 [7] 2.9 µM | GI50 [8] 1.99 µM | GI50 [9] 3.12 µM | GI50 [10] 1.82 µM | GI50 [11] 1.73 µM | GI50 [12] 1.7 µM | GI50 [13] 1.84 µM | GI50 [14] 1.83 µM | GI50 [15] 1.75 µM | GI50 [16] 1.91 µM | GI50 [17] 1.97 µM | GI50 [18] 1.74 µM | GI50 [19] 1.91 µM | GI50 [20] 1.95 µM | GI50 [21] 1.62 µM | GI50 [22] 1.79 µM | GI50 [23] 1.52 µM | GI50 [24] 1.71 µM | GI50 [25] 1.84 µM | GI50 [26] 1.73 µM | GI50 [27] 2.41 µM | GI50 [28] 1.59 µM | GI50 [29] 1.92 µM | GI50 [30] 1.82 µM | GI50 [31] 1.75 µM | GI50 [32] 2.08 µM | GI50 [33] 2.13 µM | GI50 [34] 4.97 µM | GI50 [35] 1.78 µM | GI50 [36] 2 µM | GI50 [37] 2.18 µM | GI50 [38] 1.6 µM | GI50 [39] 1.78 µM | GI50 [40] 1.87 µM | GI50 [41] 1.73 µM | GI50 [42] 1.86 µM | GI50 [43] 1.79 µM | GI50 [44] 1.81 µM | GI50 [45] 1.74 µM | GI50 [46] 1.73 µM | GI50 [47] 1.52 µM | GI50 [48] 2.3 µM | GI50 [49] 1.86 µM | GI50 [50] 1.73 µM | GI50 [51] 1.71 µM | GI50 [52] 1.7 µM | GI50 [53] 1.86 µM | GI50 [54] 1.7 µM | GI50 [55] 1.54 µM
3.8 µM: TGI [14] | TGI [29]
3.37 µM: TGI [38]
5.9 µM: TGI [27]
> 100 µM: TGI [7]
3.79 µM: TGI [13]
3.17 µM: TGI [11]
3.19 µM: TGI [41]
3.59 µM: TGI [18]
3.72 µM: TGI [40]
3.57 µM: TGI [39] | TGI [53]
9.61 µM: TGI [9]
3.13 µM: TGI [1]
3.24 µM: TGI [26]
3.35 µM: TGI [2] | TGI [22]
3.3 µM: TGI [51]
2.88 µM: TGI [55]
3.51 µM: TGI [30] | TGI [44]
3.9 µM: TGI [19]
4.09 µM: TGI [17] | TGI [36]
3.63 µM: TGI [3]
3.66 µM: TGI [42]
4 µM: TGI [10] | TGI [35]

Cc1ccc(C(=O)NC(C)C)cc1-c1ccc(C(=O)NCC2CC2)cc1
inactive: GI50 [1] > 25 µM | GI50 [2] > 25 µM | GI50 [3] > 25 µM | GI50 [4] > 25 µM | GI50 [5] > 25 µM | GI50 [6] > 25 µM | GI50 [7] > 25 µM | GI50 [8] > 25 µM | GI50 [9] > 25 µM | GI50 [10] > 25 µM | GI50 [11] > 25 µM | GI50 [12] > 25 µM | GI50 [13] > 25 µM | GI50 [14] > 25 µM | GI50 [15] > 25 µM | GI50 [16] > 25 µM | GI50 [17] > 25 µM | GI50 [18] > 25 µM | GI50 [19] > 25 µM | GI50 [20] > 25 µM | GI50 [21] > 25 µM | GI50 [22] > 25 µM | GI50 [23] > 25 µM | GI50 [24] > 25 µM | GI50 [25] > 25 µM | GI50 [26] > 25 µM | GI50 [27] > 25 µM | GI50 [28] > 25 µM | GI50 [29] > 25 µM | GI50 [30] > 25 µM | GI50 [31] > 25 µM | GI50 [32] > 25 µM | GI50 [33] > 25 µM | GI50 [34] > 25 µM | GI50 [35] > 25 µM | GI50 [36] > 25 µM | GI50 [56] > 25 µM | GI50 [37] > 25 µM | GI50 [38] > 25 µM | GI50 [39] > 25 µM | GI50 [40] > 25 µM | GI50 [41] > 25 µM | GI50 [42] > 25 µM | GI50 [57] > 25 µM | GI50 [43] > 25 µM | GI50 [44] > 25 µM | GI50 [45] > 25 µM | GI50 [46] > 25 µM | GI50 [47] > 25 µM | GI50 [49] > 25 µM | GI50 [50] 16.5 µM | GI50 [51] > 25 µM | GI50 [52] > 25 µM | GI50 [53] > 25 µM | GI50 [54] > 25 µM | GI50 [55] > 25 µM
> 25 µM: TGI [1] | TGI [2] | TGI [3] | TGI [4] | TGI [5] | TGI [6] | TGI [7] | TGI [8] | TGI [9] | TGI [10] | TGI [11] | TGI [12] | TGI [13] | TGI [14] | TGI [15] | TGI [16] | TGI [17] | TGI [18] | TGI [19] | TGI [20] | TGI [21] | TGI [22] | TGI [23] | TGI [24] | TGI [25] | TGI [26] | TGI [27] | TGI [28] | TGI [29] | TGI [30] | TGI [31] | TGI [32] | TGI [33] | TGI [34] | TGI [35] | TGI [36] | TGI [56] | TGI [37] | TGI [38] | TGI [39] | TGI [40] | TGI [41] | TGI [42] | TGI [57] | TGI [43] | TGI [44] | TGI [45] | TGI [46] | TGI [47] | TGI [49] | TGI [50] | TGI [51] | TGI [52] | TGI [53] | TGI [54] | TGI [55]
